This test has as its system L1210 leukemia ip in BDF1 mice, survival T/C. Description: NCI In Vivo Anticancer Drug Screen. Data for tumor model L1210 Leukemia (intraperitoneal) in B6D2F1 (BDF1) mice. The following applies: endpoint: mean survival time, higher = longer survival. Summed up:
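Transplanted-tumor mice were given test agent; controls received vehicle only. Survival readings from the two groups were divided (treated over control).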

Where [1] appears, read: dose: 100.0 mg/kg/injection, schedule: Q01DX001 (ip), vehicle: Klucel (hydroxypropylcellulose) (HPC).
[2] abbreviates: dose: 200.0 mg/kg/injection, schedule: Q01DX001 (ip), vehicle: Klucel (hydroxypropylcellulose) (HPC).
Where [3] appears, read: dose: 400.0 mg/kg/injection, schedule: Q01DX001 (ip), vehicle: Klucel (hydroxypropylcellulose) (HPC).
Where [4] appears, read: dose: 100.0 mg/kg/injection, schedule: Q01DX009 (ip), vehicle: Klucel (hydroxypropylcellulose) (HPC).
The mark [5] stands for this setting: dose: 100.0 mg/kg/injection, schedule: Q04DX003 (ip), vehicle: Klucel (hydroxypropylcellulose) (HPC).
Setting [6] is: dose: 200.0 mg/kg/injection, schedule: Q01DX009 (ip), vehicle: Klucel (hydroxypropylcellulose) (HPC).
Where [7] appears, read: dose: 200.0 mg/kg/injection, schedule: Q04DX003 (ip), vehicle: Klucel (hydroxypropylcellulose) (HPC).
The mark [8] stands for this setting: dose: 400.0 mg/kg/injection, schedule: Q01DX009 (ip), vehicle: Klucel (hydroxypropylcellulose) (HPC).
The mark [9] stands for this setting: dose: 400.0 mg/kg/injection, schedule: Q04DX003 (ip), vehicle: Klucel (hydroxypropylcellulose) (HPC).
[10] abbreviates: dose: 100.0 mg/kg/injection, schedule: Q01DX001 (ip), vehicle: saline with Tween-80.
Setting [11] is: dose: 25.0 mg/kg/injection, schedule: Q01DX009 (ip), vehicle: saline with Tween-80.
[12] abbreviates: dose: 50.0 mg/kg/injection, schedule: Q01DX009 (ip), vehicle: saline with Tween-80.
Setting [13] is: dose: 100.0 mg/kg/injection, schedule: Q01DX009 (ip), vehicle: saline with Tween-80.
The mark [14] stands for this setting: dose: 200.0 mg/kg/injection, schedule: Q01DX009 (ip), vehicle: saline with Tween-80.
Setting [15] is: dose: 400.0 mg/kg/injection, schedule: Q01DX009 (ip), vehicle: saline with Tween-80.
[16] abbreviates: dose: 50.0 mg/kg/injection, schedule: Q01DX009 (ip), vehicle: Klucel (hydroxypropylcellulose) (HPC).

Molecules are shown by their SMILES. Several values for one entry are separate records, joined by “and”; a condition that tells them apart may be missing. Identical values can stand only once. Inconclusive results and toxic doses are left out.

Turning to `COc1ccc(-n2c(=O)c(N=Nc3ccccc3C)c(O)n(-c3ccccc3Cl)c2=S)cc1`, the T/C reads like this: under setting [1], 107 % of control; under setting [2], 94 % of control; under setting [3], 102 % of control.

Take `Cc1ccc([N+](=O)[O-])cc1N1CCNC1=O`: the T/C by setting is: under setting [4], 104 % of control; under setting [5], 102 % of control; under setting [6], 102 % of control; under setting [7], 98 % of control; under setting [8], 100 % of control; under setting [9], 101 % of control.

As to `CCC(=O)Nc1cccc(OP(=O)(N(C)C)N(C)C)c1`, the T/C by setting is: under setting [10], 96 % of control; (dose: 200.0 mg/kg/injection, schedule: Q01DX001 (ip), vehicle: saline with Tween-80) 102 % of control; (dose: 400.0 mg/kg/injection, schedule: Q01DX001 (ip), vehicle: saline with Tween-80) 88 % of control.

As for `O=C1CC2CC1C1CC(Br)C(Br)C21` (stereo not given), the T/C (dose: 100.0 mg/kg/injection, schedule: Q04DX003 (ip), vehicle: acetone) was 97 % of control; the T/C (dose: 200.0 mg/kg/injection, schedule: Q04DX003 (ip), vehicle: acetone) was 97 % of control; the T/C (dose: 400.0 mg/kg/injection, schedule: Q04DX003 (ip), vehicle: acetone) was 92 % of control.

As for `COC12CCCC1S(=O)(=O)C2` (stereo not given), the T/C is 102 % of control under setting [11] and 98 % of control under setting [12].

`C=CCOCC(O)CN(CC(C)C)CC(C)C` (stereo not given): the T/C under setting [4] was 112 % of control; the T/C under setting [5] is 95 % of control; the T/C under setting [6] was 101 % of control; the T/C under setting [7] was 88 % of control; the T/C under setting [9] is 105 % of control.

In the case of `COc1ccc(/C=C/C(=O)c2ccc(OC)c(OC)c2)cc1OC`, the T/C was 100 % of control under setting [13], 105 % of control under setting [14] and 102 % of control under setting [15].

Regarding `CN(C)/N=C1/CC(=O)CC(C)(C)C1`, the T/C under setting [16] was 110 % of control, the T/C under setting [4] is 100 % of control and the T/C under setting [6] was 100 % of control.

Regarding `CC(=O)C[n+]1ccccc1Br`, the T/C by setting is: (dose: 62.0 mg/kg/injection, schedule: Q01DX015 (ip), vehicle: water) 87 % of control; (dose: 125.0 mg/kg/injection, schedule: Q01DX015 (ip), vehicle: water) 100 % of control.

For the compound `O=C(Nc1cccc([N+](=O)[O-])c1)c1ccc2c(c1)C(=O)OC2=O`, the T/C is 95 % of control under setting [13], 87 % of control under setting [14] and 93 % of control under setting [15].

As to `O=C(NC(=S)Nc1ccccc1)c1cccc(Br)c1`, the T/C reads like this: (dose: 75.0 mg/kg/injection, schedule: Q01DX001 (ip), vehicle: carboxymethylcellulose (CMC)) 90 % of control; (dose: 150.0 mg/kg/injection, schedule: Q01DX001 (ip), vehicle: carboxymethylcellulose (CMC)) 88 % of control; (dose: 300.0 mg/kg/injection, schedule: Q01DX001 (ip), vehicle: carboxymethylcellulose (CMC)) 96 % of control.

For the compound `CCCCCCCCCCCCCCCCN(C)S(=O)(=O)c1ccc(N2CCOCC2)c(N)c1`, the T/C by setting is: (dose: 100.0 mg/kg/injection, schedule: Q04DX003 (ip), vehicle: gum acacia) 88 % of control; (dose: 200.0 mg/kg/injection, schedule: Q04DX003 (ip), vehicle: gum acacia) 93 % of control; (dose: 400.0 mg/kg/injection, schedule: Q04DX003 (ip), vehicle: gum acacia) 86 % of control.

For `O=C(C[n+]1ccc2c([N+](=O)[O-])cccc2c1)c1ccccc1`, the T/C by setting is: (dose: 12.5 mg/kg/injection, schedule: Q04DX003 (ip), vehicle: Klucel (hydroxypropylcellulose) (HPC)) 98 % of control; (dose: 25.0 mg/kg/injection, schedule: Q04DX003 (ip), vehicle: Klucel (hydroxypropylcellulose) (HPC)) 105 % of control; (dose: 50.0 mg/kg/injection, schedule: Q04DX003 (ip), vehicle: Klucel (hydroxypropylcellulose) (HPC)) 103 % of control; under setting [5], 96 % of control.

For `Cc1csc(C)[n+]1[O-]`, the T/C (dose: 100.0 mg/kg/injection, schedule: Q04DX003 (ip), vehicle: saline) was 102 % of control; the T/C (dose: 200.0 mg/kg/injection, schedule: Q04DX003 (ip), vehicle: saline) was 101 % of control; the T/C (dose: 400.0 mg/kg/injection, schedule: Q04DX003 (ip), vehicle: saline) was 98 % of control.

With `O=C(NCCCl)NC1CCCc2ccccc21` (stereo not given), the T/C is, setting by setting: (dose: 6.25 mg/kg/injection, schedule: Q01DX009 (ip), vehicle: Klucel (hydroxypropylcellulose) (HPC)) 95 % of control; (dose: 12.5 mg/kg/injection, schedule: Q01DX009 (ip), vehicle: Klucel (hydroxypropylcellulose) (HPC)) 94 % of control; (dose: 25.0 mg/kg/injection, schedule: Q01DX009 (ip), vehicle: Klucel (hydroxypropylcellulose) (HPC)) 90 % of control; under setting [16], 92 % of control; under setting [1], 105 % of control; under setting [2], 91 % of control.

For `CC#CC#Cc1cccc(=O)o1`, the T/C (dose: 25.0 mg/kg/injection, schedule: Q04DX003 (ip), vehicle: other) was 90 % of control; the T/C (dose: 50.0 mg/kg/injection, schedule: Q04DX003 (ip), vehicle: other) was 90 % of control; the T/C (dose: 100.0 mg/kg/injection, schedule: Q04DX003 (ip), vehicle: other) was 108 % of control.

For `O=C1NC(C2CCC3CN32)C(=O)NC1C1CCC2CN21` (stereo not given), the T/C is 102 % of control and 105 % of control (dose: 0.2 mg/kg/injection, schedule: Q01DX009 (ip), vehicle: saline); 110 % of control and 113 % of control (dose: 0.4 mg/kg/injection, schedule: Q01DX009 (ip), vehicle: saline); 101 % of control (dose: 0.5 mg/kg/injection, schedule: Q01DX001 (ip), vehicle: Klucel (hydroxypropylcellulose) (HPC)); 110 % of control (dose: 0.8 mg/kg/injection, schedule: Q01DX009 (ip), vehicle: saline); 101 % of control (dose: 1.0 mg/kg/injection, schedule: Q01DX001 (ip), vehicle: Klucel (hydroxypropylcellulose) (HPC)); 112 % of control (dose: 1.1 mg/kg/injection, schedule: Q01DX009 (ip), vehicle: saline). In addition, the T/C runs as follows: (dose: 2.0 mg/kg/injection, schedule: Q01DX001 (ip), vehicle: Klucel (hydroxypropylcellulose) (HPC)) 151 % of control; (dose: 2.7 mg/kg/injection, schedule: Q01DX009 (ip), vehicle: saline) 163 % of control; (dose: 5.0 mg/kg/injection, schedule: Q01DX009 (ip), vehicle: saline) 182 % of control; (dose: 10.0 mg/kg/injection, schedule: Q01DX009 (ip), vehicle: saline) 103 % of control; (dose: 16.0 mg/kg/injection, schedule: Q01DX001 (ip), vehicle: Klucel (hydroxypropylcellulose) (HPC)) 164 % of control and 271 % of control; (dose: 24.0 mg/kg/injection, schedule: Q01DX001 (ip), vehicle: Klucel (hydroxypropylcellulose) (HPC)) 169 % of control. Moreover, the T/C (dose: 36.0 mg/kg/injection, schedule: Q01DX001 (ip), vehicle: Klucel (hydroxypropylcellulose) (HPC)) was 101 % of control.

On to `O=C(COc1ccc(Cl)cc1C(=O)O)NCc1ccc(NC(=O)Nc2ccc(S(=O)(=O)F)cc2Cl)cc1`, for which the T/C is 102 % of control under setting [1], 93 % of control under setting [2] and 89 % of control under setting [3].

With `COc1cccc(/C=C/[N+](=O)[O-])c1OCc1ccccc1`, the T/C by setting is: (dose: 12.5 mg/kg/injection, schedule: Q04DX003 (ip), vehicle: saline with Tween-80) 117 % of control; (dose: 25.0 mg/kg/injection, schedule: Q04DX003 (ip), vehicle: saline with Tween-80) 95 % of control; (dose: 50.0 mg/kg/injection, schedule: Q04DX003 (ip), vehicle: saline with Tween-80) 111 % of control.

Consider `CCOC(=O)c1ccc(NC(=O)Oc2ccc(Cl)cc2C)cc1`, for which the T/C under setting [4] was 101 % of control, the T/C under setting [6] was 92 % of control and the T/C under setting [8] is 95 % of control.

Turning to `C=CC[n+]1c(C)ccc2ccccc21`, the T/C under setting [11] was 100 % of control, the T/C under setting [12] was 115 % of control and the T/C under setting [10] was 114 % of control.

Values taken from PubChem BioAssay AID248 (DTP/NCI, 2004).
